≈ marks a conversion by molar mass, not a printed value.
Assays:
Format in all cases: cell-based
Aspergillus terreus AT49 [1] = experiment: MIC, YAG medium; conditions: 24 h at 35° C, MIC banded into grades; for MIC: Aspergillus terreus, read-out: MIC grade, A. terreus 49
Method: (§1) Between 1 and 5 mgs of compound were accurately weighed out into a sterile Eppendorf tube. The compound was dissolved in DMSO to give a solution containing 5 mg/mL. Tubes were stored at −20° C. until required.
(§2) On the day of testing thawed solutions were vortex mixed to ensure homogeneity. 30 μL of solution was removed and added to 570 μL of sterile water in a separate sterile Eppendorf. The thoroughly mixed solution was used to prepare a series of doubling dilutions in water, in a deep well plate. Thirteen replicate plates were prepared using a Minitrak by aspirating 20 μL from each well into eleven clear polystyrene 96 well plates.
(§3) Spores of Aspergillus spp. (Aspergillus fumigatus [two strains], Aspergillus terreus [two strains], Aspergillus niger and Aspergillus flavus) were harvested from cultures grown on Sabarauds agar for 5 days, and resuspended in PBS/Tween 80 to approx 1×10^7 cfu/mL. Each organism suspension was diluted in YAG medium (1% glucose, 1% ammonium chloride and 0.5% yeast extract) to 0.5−2×10^4 cfu/mL. 80 μL of an organism suspension was added to each well of the plate containing drug dilutions.
(§4) This produced MIC plates with a drug range 50-0.05 mg/L and organism inocula of 1−2×10^4 cfu/mL for Aspergillus spp. All plates were incubated for 24 h at 35° C. Growth was assessed by monitoring the optical density at 485 nm for each well. The MIC of a compound is the lowest drug concentration that inhibits growth of an organism by >70% compared with a drug free control. MICs are recorded as mg/L. In cases where the MIC of an organism is […] mg/L the MIC is repeated using a concentration range of 0.5-0.0005 mg/L.
(§5) The following organisms were tested: Aspergillus flavus, Aspergillus fumigatus AF293 and AF210, Aspergillus niger, Aspergillus terreus AT4 and AT49, Candida albicans, Candida glabrata, Candida krusei, Candida parapsilosis and Candida tropicalis.

Aspergillus niger [2] = experiment: MIC, YAG medium; conditions: 24 h at 35° C, MIC banded into grades; for MIC: Aspergillus niger, read-out: MIC grade, A. niger
Method: as §1, §2, §3, §4, §5

Aspergillus terreus AT4 [3] = experiment: MIC, YAG medium; conditions: 24 h at 35° C, MIC banded into grades; for MIC: Aspergillus terreus, read-out: MIC grade, A. terreus
Method: as §1, §2, §3, §4, §5

Aspergillus flavus [4] = experiment: MIC, YAG medium; conditions: 24 h at 35° C, MIC banded into grades; for MIC: Aspergillus flavus, 24 h, read-out: MIC grade, A. flavus
Method: as §1, §2, §3, §4, §5

[5] = system: Aspergillus fumigatus AF210; experiment: MIC, YAG medium; conditions: 24 h at 35° C, MIC banded into grades; for MIC: Aspergillus fumigatus, read-out: MIC grade, A. fumigatus 210
Method: as §1, §2, §3, §4, §5

[6] = system: Aspergillus fumigatus AF293; experiment: MIC, YAG medium; conditions: 24 h at 35° C, MIC banded into grades; for MIC: Aspergillus fumigatus, read-out: MIC grade, A. fumigatus
Method: as §1, §2, §3, §4, §5

Aspergillus terreus AT49 [7] = experiment: MIC, RPMI medium; conditions: for MIC grade, A. terreus 49: MIC banded into grades; for MIC: Aspergillus terreus, AT49, MIC banded into grades, read-out: MIC grade, A. terreus 49
Method: as §1, §2
(§6) Assays were also performed in RPMI medium for both Aspergillus spp. (strains described above) and Candida spp. (Candida albicans, Candida glabrata, Candida krusei, Candida parapsilosis and Candida tropicalis). To perform MIC tests in this medium, dilutions of compounds are prepared in microtitre plates as described above. Fungal strains to be tested are grown and harvested in an identical manner to that described above, and each organism suspension was diluted in RPMI medium, containing 2% glucose and 0.135 M MOPS buffer (pH 7.0) to 0.5-2×10^4 cfu/mL, rather than in YAG medium. 80 μL of an organism suspension was added to each well of the plate containing drug dilutions.
(§7) This produced MIC plates with a drug range 50-0.05 mg/L and organism inocula of 1−2×10^4 cfu/mL. All plates were incubated for 24-48 h at 35° C. Growth was assessed by monitoring the optical density at 485 nm for each well. The MIC of a compound is the lowest drug concentration that inhibits growth of an organism by >80% compared with a drug free control.
as §5

Aspergillus niger [8] = experiment: MIC, RPMI medium; conditions: MIC banded into grades; for MIC: Aspergillus niger, read-out: MIC grade, A. niger
Method: as §1, §2, §6, §7, §5

Aspergillus terreus AT4 [9] = experiment: MIC, RPMI medium; conditions: for MIC grade, A. terreus: MIC banded into grades; for MIC: Aspergillus terreus, AT4, MIC banded into grades, read-out: MIC grade, A. terreus
Method: as §1, §2, §6, §7, §5

Aspergillus flavus [10] = experiment: MIC, RPMI medium; conditions: MIC banded into grades; for MIC: Aspergillus flavus, read-out: MIC grade, A. flavus
Method: as §1, §2, §6, §7, §5

[11] = system: Aspergillus fumigatus AF210; experiment: MIC, RPMI medium; conditions: for MIC grade, A. fumigatus 210: MIC banded into grades; for MIC: Aspergillus fumigatus, AF210, MIC banded into grades, read-out: MIC grade, A. fumigatus 210
Method: as §1, §2, §6, §7, §5

[12] = system: Aspergillus fumigatus AF293; experiment: MIC, RPMI medium; conditions: for MIC grade, A. fumigatus: MIC banded into grades; for MIC: Aspergillus fumigatus, AF293, MIC banded into grades, read-out: MIC grade, A. fumigatus
Method: as §1, §2, §6, §7, §5

Structure (SMILES)	MIC grade, A. terreus 49 (Aspergillus terreus AT49 [1])	MIC grade, A. niger (Aspergillus niger [2])	MIC grade, A. terreus (Aspergillus terreus AT4 [3])	MIC grade, A. flavus (Aspergillus flavus [4])	MIC grade, A. fumigatus 210 [5]	MIC grade, A. fumigatus [6]	MIC grade, A. terreus 49 (Aspergillus terreus AT49 [7])	MIC grade, A. niger (Aspergillus niger [8])	MIC (Aspergillus terreus AT49 [1])	MIC (Aspergillus niger [2])	MIC (Aspergillus terreus AT4 [3])	MIC (Aspergillus flavus [4])	MIC [5]	MIC [6]	MIC (Aspergillus terreus AT49 [7])	MIC (Aspergillus niger [8])	MIC (Aspergillus terreus AT4 [9])	MIC (Aspergillus flavus [10])	MIC [11]	MIC [12]	also measured
Cc1cc(C)nc(N2CCN(c3ccc(NC(=O)C(=O)c4c(-c5ccccc5)cc(C)n4CC(=O)OC(C)C)cc3)CC2)c1 [Example 77, (2-{4-[4-(4,6-Dimethyl-pyridin-2-yl)-piperazin-1-yl]-phenylaminooxalyl}-5-methyl-3-phenyl-pyrrol-1-yl)-acetic acid isopropyl ester]	2 (A grade of 2 represents an MIC of from 1 to 10 mg/L)	2 (A grade of 2 represents an MIC of from 1 to 10 mg/L)	2 (A grade of 2 represents an MIC of from 1 to 10 mg/L)	1 (a grade of 1 represents an MIC of greater than 10 mg/L)	3 (A grade of 3 represents an MIC of less than 1 mg/L)	3 (A grade of 3 represents an MIC of less than 1 mg/L)	1 (a grade of 1 represents an MIC of greater than 10 mg/L)	1 (a grade of 1 represents an MIC of greater than 10 mg/L)	–	–	–	–	–	–	–	–	–	–	–	–	MIC grade, A. terreus (Aspergillus terreus AT4 [9]): 1 (a grade of 1 represents an MIC of greater than 10 mg/L); MIC grade, A. flavus (Aspergillus flavus [10]): 1 (a grade of 1 represents an MIC of greater than 10 mg/L); MIC grade, A. fumigatus 210 [11]: 2 (A grade of 2 represents an MIC of from 1 to 10 mg/L); MIC grade, A. fumigatus [12]: 2 (A grade of 2 represents an MIC of from 1 to 10 mg/L)
Cc1cc(-c2ccccc2)c(C(=O)C(=O)Nc2ccc(N3CCN(CC(C)C)CC3)cc2F)n1C [Example 105, 2-(1,5-Dimethyl-3-phenyl-1H-pyrrol-2-yl)-N-[2-fluoro-4-(4-isobutyl-piperazin-1-yl)-phenyl]-2-oxo-acetamide]	–	–	–	–	–	–	–	–	< 1 µg/mL	< 1 µg/mL	< 1 µg/mL	< 1 µg/mL	< 1 µg/mL	< 1 µg/mL	< 1 µg/mL	< 1 µg/mL	< 1 µg/mL	< 1 µg/mL	< 1 µg/mL	< 1 µg/mL	–
Cc1cc(-c2ccccc2)c(C(=O)C(=O)Nc2ccc3ccccc3c2)n1C [Example 44, 2-(1,5-Dimethyl-3-phenyl-1H-pyrrol-2-yl)-N-naphthalen-2-yl-2-oxo-acetamide]	–	–	–	–	–	–	–	–	< 1 µg/mL	< 1 µg/mL	< 1 µg/mL	< 1 µg/mL	< 1 µg/mL	< 1 µg/mL	< 1 µg/mL	< 1 µg/mL	< 1 µg/mL	< 1 µg/mL	< 1 µg/mL	< 1 µg/mL	–
Cc1cc(C)nc(N2CCN(c3ccc(NC(=O)C(=O)c4c(-c5ccccc5)c(C)cn4C)cc3)CC2)c1 [Example 18, 2-(1,4-Dimethyl-3-phenyl-1H-pyrrol-2-yl)-N-{4-[4-(4,6-dimethyl-pyridin-2-yl)-piperazin-1-yl]-phenyl}-2-oxo-acetamide]	–	–	–	–	–	–	–	–	< 1 µg/mL	> 10 µg/mL	< 1 µg/mL	< 1 µg/mL	< 1 µg/mL	< 1 µg/mL	< 1 µg/mL	> 10 µg/mL	< 1 µg/mL	1 to 10 µg/mL (≈ 1.97 to 19.7 µM)	< 1 µg/mL	< 1 µg/mL	–
COCCn1c(C)cc(-c2ccccc2)c1C(=O)C(=O)Nc1ccc(N2CCN(c3cc(C)cc(C)n3)CC2)cc1Cl [Example 92, N-{2-Chloro-4-[4-(4,6-dimethyl-pyridin-2-yl)-piperazin-1-yl]-phenyl}-2-[1-(2-methoxy-ethyl)-5-methyl-3-phenyl-1H-pyrrol-2-yl]-2-oxo-acetamide]	3 (A grade of 3 represents an MIC of less than 1 mg/L)	3 (A grade of 3 represents an MIC of less than 1 mg/L)	3 (A grade of 3 represents an MIC of less than 1 mg/L)	3 (A grade of 3 represents an MIC of less than 1 mg/L)	3 (A grade of 3 represents an MIC of less than 1 mg/L)	3 (A grade of 3 represents an MIC of less than 1 mg/L)	1 (a grade of 1 represents an MIC of greater than 10 mg/L)	3 (A grade of 3 represents an MIC of less than 1 mg/L)	–	–	–	–	–	–	–	–	–	–	–	–	MIC grade, A. terreus (Aspergillus terreus AT4 [9]): 1 (a grade of 1 represents an MIC of greater than 10 mg/L); MIC grade, A. flavus (Aspergillus flavus [10]): 1 (a grade of 1 represents an MIC of greater than 10 mg/L); MIC grade, A. fumigatus 210 [11]: 3 (A grade of 3 represents an MIC of less than 1 mg/L); MIC grade, A. fumigatus [12]: 3 (A grade of 3 represents an MIC of less than 1 mg/L)
Cc1cc(C)nc(N2CCN(c3ccc(NC(=O)C(=O)c4cc(-c5ccccc5)c5n4CCCCC5)cc3)CC2)c1 [41 b]	1 (a grade of 1 represents an MIC of greater than 10 mg/L)	1 (a grade of 1 represents an MIC of greater than 10 mg/L)	1 (a grade of 1 represents an MIC of greater than 10 mg/L)	1 (a grade of 1 represents an MIC of greater than 10 mg/L)	2 (A grade of 2 represents an MIC of from 1 to 10 mg/L)	2 (A grade of 2 represents an MIC of from 1 to 10 mg/L)	1 (a grade of 1 represents an MIC of greater than 10 mg/L)	1 (a grade of 1 represents an MIC of greater than 10 mg/L)	–	–	–	–	–	–	–	–	–	–	–	–	MIC grade, A. terreus (Aspergillus terreus AT4 [9]): 1 (a grade of 1 represents an MIC of greater than 10 mg/L); MIC grade, A. flavus (Aspergillus flavus [10]): 1 (a grade of 1 represents an MIC of greater than 10 mg/L); MIC grade, A. fumigatus 210 [11]: 1 (a grade of 1 represents an MIC of greater than 10 mg/L); MIC grade, A. fumigatus [12]: 2 (A grade of 2 represents an MIC of from 1 to 10 mg/L)
Cc1cc(C)nc(N2CCN(c3ccc(NC(=O)C(=O)c4c(-c5ccccc5)ccn4CC(N)=O)cc3)CC2)c1 [Example 75, 2-(1-Carbamoylmethyl-3-phenyl-1H-pyrrol-2-yl)-N-{4-[4-(4,6-dimethyl-pyridin-2-yl)-piperazin-1-yl]-phenyl}-2-oxo-acetamide]	–	–	–	–	–	–	–	–	> 10 µg/mL	> 10 µg/mL	> 10 µg/mL	> 10 µg/mL	> 10 µg/mL	> 10 µg/mL	> 10 µg/mL	> 10 µg/mL	> 10 µg/mL	> 10 µg/mL	> 10 µg/mL	> 10 µg/mL	–
Cc1cc(-c2ccccc2)c(C(=O)C(=O)Nc2ccc(N3CCN(C(C)C(C)C)CC3)cc2)n1C (stereo not drawn) [Example 150, 2-(1,5-Dimethyl-3-phenyl-1H-pyrrol-2-yl)-N-{4-[4-(1,2-dimethyl-propyl)-piperazin-1-yl]-phenyl}-2-oxo-acetamide]	–	–	–	–	–	–	–	–	< 1 µg/mL	< 1 µg/mL	< 1 µg/mL	< 1 µg/mL	< 1 µg/mL	< 1 µg/mL	< 1 µg/mL	< 1 µg/mL	< 1 µg/mL	< 1 µg/mL	< 1 µg/mL	< 1 µg/mL	–
